According to patent US9872859B2, “Materials and methods for targeting therapeutic compositions to gut-associated lymphoid tissue (GALT)” (THE FLORIDA INTERNATIONAL UNIVERSITY BOARD OF TRUSTEES, priority 2016, dated 2018):

What was measured:
HIV-1 1Ba-L = assay: Anti-HIV activity in HIV-infected primary human macrophages (p24 ELISA); assay type: cell-based; conditions: 70 ug/ml
From the text: The nanodrug was further investigated for anti-HIV activity in primary human macrophage and M-cell culture model, respectively. Human peripheral blood mononuclear cells (PBMC) were isolated from healthy donor and differentiated to macrophages as per previously published protocol^23. Briefly, PBMC were isolated with Ficoll-Hypaque (Pharmacia) gradient and cells were allowed to differentiate for 7 days in the presence of human macrophage colony stimulating factor (MCSF, Sigma) to macrophages. Following 7 days of incubation, macrophages were infected with HIV-1 1Ba-L (NIH AIDS research and reference reagent program. Cat#510) (100 ng/ml) and incubated for 24 hrs. The next day, cells were thoroughly washed to get rid of any unattached virus particle and fresh media was added. At the same time, same concentration (70 ug/ml) of nanodrug and unformulated drug (EFV) were added to these cells separately. The HIV infected macrophages were served as control. The nanodrug/EFV drug treated cells were monitored for up to 10 days along with infected control cells. The cell supernatant was collected at day 0, 1, 3, 5, 7 and 10 days post treatment. The viral p24 level in the supernatant was measured with p24 ELISA assay (Cat. #0801200, Zeptometrix, USA). The minimum assay detection limit for p24 antigen by ELISA was 7.8 pg/ml as provided by the manufacturer. […]

HIV-1Ba-L = assay: Anti-HIV activity in in vitro M-cell culture model with HIV-infected Raji cells (p24 ELISA); assay type: cell-based; conditions: 70 ug/ml; for HIV replication (p24 level in culture supernatant) over time: infected Raji cells
Description: The nanodrug was further investigated for anti-HIV activity in primary human macrophage and M-cell culture model, respectively. Simultaneously, a parallel anti-HIV activity study was set up in an in vitro model of M-cell. In this model, Raji cells were exposed with HIV-1Ba-L at the concentration of (100 ng/ml) for 24 hrs in a co-culture and then washed from unattached viral particles^24,25. Following that, same concentration (70 ug/ml) of nanodrug and EFV were added to M-cell culture model separately. […] The untreated Raji cells were kept as a control for all the experiments related to drug activity. In the M-cell culture model, infected Raji cells were also treated with EFV to compare with nanodrug. The effect of nanodrug on HIV replication was measured for up to 10 days post treatment in culture supernatant.

O=C1Nc2ccc(Cl)cc2[C@@](C#CC2CC2)(C(F)(F)F)O1 [EFV, efavirenz]
HIV replication (p24 level in culture supernatant) over time (HIV-1 1Ba-L; day 0-10 post treatment): immediate inhibition of viral replication on day 1 and following that there was increase of viral p24 level
p24 level at end of experiment (HIV-1 1Ba-L; day 10): increased up to the level of untreated cells
p24 level within day 10 (HIV-1Ba-L; day 10): increased closer to the level of untreated cells
HIV replication (p24 level in culture supernatant) over time (HIV-1Ba-L; up to day 10): immediate reduction of viral replication
HIV replication (p24 level in culture supernatant) over time (HIV-1Ba-L; up to day 10, listed as free EFV): immediate decrease in viral replication as expected; however, rebound of viral p24 level within day ten
